Data set [1] concerns BALB/c mice. Nature of the data set: Tolerability in BALB/c mice: liver, kidney and spleen weights (Example 8). Format: in vivo, mouse. On the procedure:
The mice were sacrificed 2 days after the last administration and liver, spleen and kidney weights were measured. Plasma transaminase levels were also evaluated.
The weights of liver, kidney and spleen of the mice were measured after 4 weeks and liver weights are presented in Table 10 as a percentage change compared to the corresponding weights in the PBS control. The percentage changes in kidney and spleen weight in the treated mice compared to the PBS control were negligible and are not shown.

In data set [2] the test system is human TGF-beta1 mRNA. Nature of the data set: Antisense inhibition of human TGF-beta1 mRNA in HuVEC cells, single 10 nM dose, Lipofectamine 2000 (Example 2). The format is cell-based. Summed up: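 HuVEC cells (5,000/well) transfected with 10 nM 2-13-5 MOE gapmer (phosphorothioate, 5-methylcytosine) via Lipofectamine 2000 for 4 h, then recovered ~24 h. mRNA measured by qRT-PCR, normalized to RIBOGREEN total RNA; percent inhibition versus untreated cells.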

In data set [3] the test system is human TGF-beta1 mRNA. Put plainly: Dose-dependent antisense inhibition of human TGF-beta1 in HuVEC cells, Lipofectamine 2000, 0.9375-30 nM (Example 3). Particulars: Lipofectamine 2000. The format is cell-based. The protocol: Cells were plated at a density of 5,000 cells per well and transfected using Lipofectamine™ 2000 reagent with 0.9375 nM, 1.875 nM, 3.75 nM, 7.5 nM, 15 nM, and 30 nM concentrations of antisense oligonucleotide for 4 hours, as specified in Table 3. After a recovery period of approximately 16 hours, RNA was isolated from the cells and TGF-beta1 mRNA levels were measured by quantitative real-time PCR. Human TGF-beta1 primer probe set RTS 2980 (forward sequence CTCTCCGACCTGCCACAGA, SEQ ID NO: 160; reverse sequence […], SEQ ID NO: 53; probe sequence CCCTATTCAAGACCACCCACCTTCTGGTX, SEQ ID NO: 161) was used to measure mRNA levels. TGF-beta1 mRNA levels were adjusted according to total RNA content, as measured by RIBOGREEN®. Results are presented as percent inhibition of TGF-beta1, relative to untreated control cells.

Data set [4] relates to human TGF-beta1 mRNA. Nature of the data set: Dose-dependent antisense inhibition of human TGF-beta1 in HuVEC cells, Lipofectamine 2000, 0.3292-80 nM, comparison with oligos of U.S. Pat. No. 6,436,909 (Example 4). Format: cell-based. On the procedure: The dose-dependent antisense inhibition potential of these gapmers was compared with that of Oligo IDs 104992 and 1138498 from U.S. Pat. No. 6,436,909. Cells were plated at a density of 5,000 cells per well and transfected using Lipofectamine™ 2000 reagent with 0.3292 nM, 0.9877 nM, 2.963 nM, 8.8889 nM, 26.6667 nM, and 80 nM concentrations of antisense oligonucleotide for 4 hours, as specified in Table 4. After a recovery period of approximately 16 hours, RNA was isolated from the cells and TGF-beta1 mRNA levels were measured by quantitative real-time PCR. Human TGF-beta1 primer probe set RTS 2980 was used to measure mRNA levels. TGF-beta1 mRNA levels were adjusted according to total RNA content, as measured by RIBOGREEN®. Results are presented as percent inhibition of TGF-beta1, relative to untreated control cells. […] All the antisense oligonucleotides in Table 4 target human TGF-beta1 mRNA (SEQ ID NO: 1).

Data set [5] has as its system human TGF-beta1 mRNA. Put plainly: Dose-dependent confirmation of antisense inhibition of human TGF-beta1 in HuVEC cells after large-scale synthesis, Lipofectamine 2000, 0.007-15 nM (Example 5). Format: cell-based. The conditions noted are these: for percent inhibition of TGF-beta1: Lipofectamine 2000. On the procedure:
Cells were plated at a density of 5,000 cells per well and transfected using Lipofectamine™ 2000 reagent with 0.007 nM, 0.021 nM, 0.062 nM, 0.185 nM, 0.556 nM, 1.667 nM, 5 nM, and 15 nM concentrations of antisense oligonucleotide for 4 hours, as specified in Table 5. After a recovery period of approximately 16 hours, RNA was isolated from the cells and TGF-beta1 mRNA levels were measured by quantitative real-time PCR. Human TGF-beta1 primer probe set RTS 2980 was used to measure mRNA levels. TGF-beta1 mRNA levels were adjusted according to total RNA content, as measured by RIBOGREEN®. Results are presented as percent inhibition of TGF-beta1, relative to untreated control cells.

For data set [6], the system named is human TGF-beta1 mRNA. Put plainly: Dose-dependent confirmation of antisense inhibition of human TGF-beta1 in HuVEC cells, electroporation (Example 6). Format: cell-based. The protocol: The gapmers from Example 5 (see Table 5) were also tested at various doses in HuVEC cells using electroporation as the transfection reagent. Cells were plated at a density of 20,000 cells per well and transfected using electroporation with 0.15625 nM, 0.3125 nM, 0.625 nM, 1.25 nM, 2.5 nM, 5 nM, 10 nM, and 20 nM concentrations of antisense oligonucleotide for 4 hours, as specified in Table 6. After a recovery period of approximately 16 hours, RNA was isolated from the cells and TGF-beta1 mRNA levels were measured by quantitative real-time PCR. TGF-beta1 mRNA levels were adjusted according to total RNA content, as measured by RIBOGREEN®. Results are presented as percent inhibition of TGF-beta1, relative to untreated control cells.

Data set [7] has as its system BALB/c mice. Put plainly: Tolerability in BALB/c mice: plasma transaminases ALT and AST (Example 7). Particulars: for aspartate transaminase levels: plasma.
Method: These gapmer oligonucleotides were designed to target human TGF-beta1 and have varying degrees of mismatch with murine TGF-beta1 sequence, as shown in Table 1. Oligo ID Nos. 413982 and 414040 have greater than 3 mismatches to the murine TGF-beta1 sequence. Oligo ID No. 414035 has 2 mismatches to murine TGF-beta1. Oligo ID No. 414036 has no mismatches to murine TGF-beta1.
BALB/c mice were injected with 25 mg/kg or 50 mg/kg of Oligo ID Nos. 413982, 414035, 414036, or 414040 twice a week for 4 weeks. A control group of mice was injected with phosphate buffered saline (PBS) twice a week for 4 weeks. Plasma transaminase levels were evaluated bi-weekly.
To evaluate the impact of TGF-beta1 antisense oligonucleotides on the hepatic function of mice described above, plasma concentrations of transaminases were measured using an automated clinical chemistry analyzer (Hitachi Olympus AU400e, Melville, N.Y.).
Data set [8] relates to bleomycin-induced skin fibrosis in C57BL/6 mice. Nature of the data set: Bleomycin-induced murine model of skin fibrosis: skin thickness and breaking strength (Example 10). The format is in vivo, mouse. Particulars: for bleomycin-induced skin fibrosis and thickening: C57BL/6 mice, 5 mg intradermally twice a week, Day 18. On the procedure:
The ability of a TGF-beta1 ASO to reduce the induction of skin fibrosis in a bleomycin-induced model of dermal fibrosis was evaluated.
Two groups of 8 C57BL/6 mice each were treated with bleomycin every other day for 19 days. Bleomycin, at a concentration of 10 mg/mL in PBS and at a volume of 0.1 mL, was injected subcutaneously into the shaved backs of the mice. The injection site was divided into 4 quadrants. The 100 μL volume of bleomycin was divided into four 25 μL aliquots injected at 90 degree intervals, to the upper left, upper right, lower left, and lower right “quadrants”.
Each of the two groups was treated intradermally with PBS (vehicle) or a 5 mg dose of a TGF-beta1 antisense oligonucleotide (Oligo ID 433849) twice a week, starting from day 1 of bleomycin administration. Animals were sacrificed on Day 18 of the study. Skin thickness was measured by skin calipers on 6-mm punch biopsy specimens obtained from the upper back of the mice. Breaking strength of the skin was measured on the 6-mm punch biopsy specimens using a tensiometer (Series EG2 digital force gauge; Mark-10, Copiague, N.Y.), and the point of maximal stress before tearing of the biopsy specimen was recorded. All measurements were undertaken in a blinded manner.

Where “and” joins values, the source holds several entries; their conditions need not be identical. Identical values can stand only once. Entries after “also recorded” stand apart in the source; their conditions may differ. In the oligonucleotide strings, read from the 5' end, every base follows the letter of its sugar. An asterisk marks phosphorothioate; unmarked linkages are phosphodiester. Other units and linkages are bracketed, terminal groups are in braces. A string of capitals states the bases alone. e = 2'-O-(2-methoxyethyl) (MOE); [5mC] = 5-methylcytosine; d = 2'-deoxy (DNA) Bounds are passed on as bounds.

Data on 4 substances can be found in patent US20110172296A1, “MODULATION OF TRANSFORMING GROWTH FACTOR-BETA 1 EXPRESSION” (priority 2010, published 2011).

Usually % inhibition stands for the relative decrease from the control value, in per cent. The IC50 is the concentration needed to halve the response being measured. A low value points to greater potency.

In the case of “105204 (antisense GTCCACCATTAGCACGCGGG; chemistry not given here) [compound 105204]”, the “Liver % Weight change relative to PBS control” value with BALB/c mice [1] (25 mg/kg twice a week for 4 weeks) is reported as “+28%”; with BALB/c mice [1] (50 mg/kg twice a week for 4 weeks), “+73%”. For the same substance, the “increase in liver weight” value with BALB/c mice [1] (25 or 50 mg/kg twice a week for 4 weeks, vs PBS control) is above 70%.

Regarding “414040 (antisense e[5mC]*eT*d[5mC]*dT*d[5mC]*dT*d[5mC]*d[5mC]*dA*dT*d[5mC]*dT*dT*dT*dA*eA*eT*eG*eG*eG) [compound 414040]”, the “% inhibition” value with human TGF-beta1 mRNA [2] (10 nM oligonucleotide, HuVEC, relative to untreated control cells, gapmers targeted to SEQ ID NO: 1) came out at 90%. Also, the “inhibition of a TGF-beta1 mRNA” value in the data set on human TGF-beta1 mRNA [2] (threshold lists of Oligo IDs, 10 nM) is 60% and 65% and 70% and 75% and 80% and 85% and 90%. Moreover, the “percent inhibition of TGF-beta1” value in the data set on human TGF-beta1 mRNA [3] (0.9375 nM) came out at 72%; in the data set with human TGF-beta1 mRNA [3] (1.875 nM), 83%; with human TGF-beta1 mRNA [3] (3.75 nM) it was 90%; in the data set on human TGF-beta1 mRNA [3] (7.5 nM) it was 94%; in the data set on human TGF-beta1 mRNA [3] (15 nM), 95%; in the data set with human TGF-beta1 mRNA [3] (30 nM) it was 95%. The “percent inhibition of TGF-beta1” value is 85% in the data set with human TGF-beta1 mRNA [4] (0.3292 nM); 90% with human TGF-beta1 mRNA [4] (0.9877 nM); 94% with human TGF-beta1 mRNA [4] (2.963 nM); 94% in the data set on human TGF-beta1 mRNA [4] (8.8889 nM); 94% with human TGF-beta1 mRNA [4] (26.6667 nM); 93% in the data set with human TGF-beta1 mRNA [4] (80.0 nM). The “percent inhibition of TGF-beta1” value in the data set with human TGF-beta1 mRNA [5] (0.007 nM) was determined as 19%; with human TGF-beta1 mRNA [5] (0.021 nM) it was 45%; in the data set on human TGF-beta1 mRNA [5] (0.062 nM) it was 58%; in the data set with human TGF-beta1 mRNA [5] (0.185 nM), 76%; in the data set on human TGF-beta1 mRNA [5] (0.556 nM), 83%; in the data set with human TGF-beta1 mRNA [5] (1.667 nM), 89%. Moreover, the “percent inhibition of TGF-beta1” value turned out to be 92% in the data set with human TGF-beta1 mRNA [5] (5 nM) and 93% in the data set with human TGF-beta1 mRNA [5] (15 nM). Moreover, the 50% inhibitory concentration (IC50) in the data set with human TGF-beta1 mRNA [5] (Lipofectamine 2000, Example 5) was 0.04 nM. Further, the “percent inhibition of TGF-beta1 mRNA relative to untreated control cells” value in the data set on human TGF-beta1 mRNA [6] (0.15625 nM oligonucleotide) stood at 57%; with human TGF-beta1 mRNA [6] (0.3125 nM oligonucleotide), 68%; in the data set with human TGF-beta1 mRNA [6] (0.625 nM oligonucleotide), 81%; with human TGF-beta1 mRNA [6] (1.25 nM oligonucleotide), 91%; with human TGF-beta1 mRNA [6] (2.5 nM oligonucleotide), 93%; in the data set on human TGF-beta1 mRNA [6] (5.00 nM oligonucleotide), 95%. In addition, the “percent inhibition of TGF-beta1 mRNA relative to untreated control cells” value in the data set on human TGF-beta1 mRNA [6] (10.00 nM oligonucleotide) and in the data set with human TGF-beta1 mRNA [6] (20 nM oligonucleotide) was 94% in each case. Further, the alanine transaminase levels in the data set on BALB/c mice [7] (25 mg/kg twice a week, Week 2) stood at 178 IU/L; with BALB/c mice [7] (25 mg/kg twice a week, Week 4), 2248 IU/L; in the data set with BALB/c mice [7] (50 mg/kg twice a week, Week 2), 837 IU/L; with BALB/c mice [7] (50 mg/kg twice a week, Week 4) it was 4997 IU/L. In addition, the aspartate transaminase levels turned out to be 128 IU/L in the data set on BALB/c mice [7] (25 mg/kg twice a week, Week 2); 1405 IU/L in the data set on BALB/c mice [7] (25 mg/kg twice a week, Week 4); 529 IU/L with BALB/c mice [7] (50 mg/kg twice a week, Week 2); 2237 IU/L with BALB/c mice [7] (50 mg/kg twice a week, Week 4). Also, in the data set on BALB/c mice [7] (compared to placebo (PBS) controls), the “increase in ALT levels” value was > 160 fold and 166 fold.

For “Oligo ID 433849: rat specific TGF-beta1 antisense oligonucleotide; SEQ ID NO. 166 (antisense GTCCTTAAATACAGCCCCGG; listed as DNA, chemistry not given here) [rat specific TGF-beta1 antisense oligonucleotide; 166]”, the “bleomycin-induced skin fibrosis and thickening” value in data set [8] is recorded as “significantly reduced”; in data set [8] (listed as TGF-beta1 ASO), “significantly reduced; also recorded: reduced the severity”.

With bleomycin [reference compound], the skin thickness in data set [8] (bleomycin-treated mice, from 30 mm) was 40-45 mm. Also, the “breaking strength of skin” value in data set [8] (bleomycin-treated mice, untreated skin typically 0.2 kg tension) is listed as “approximately 0.47 kg”.
